Test results reported in patent publication US12258342B2, “Class of DNA gyrase and/or topoisomerase IV inhibitors with activity against gram-positive and gram-negative bacteria” (Univerza v Ljubljani, priority 2018, dated 2025).
Converted amounts (≈) assume the structure as drawn.

Key:
E. coli ATCC 25922 = assay: Microbroth dilution MIC (CLSI); conditions: Escherichia coli, ATCC25922, read-out: MIC (μg/mL) E. coli ATCC 25922
E. faecium ATCC 35667 = assay: Microbroth dilution MIC (CLSI); conditions: Enterococcus faecium, ATCC35667, read-out: MIC (μg/mL) E. faecium ATCC 35667
E. faecalis ATCC 29212 = assay: Microbroth dilution MIC (CLSI); conditions: Enterococcus faecalis, ATCC29212, read-out: MIC (μg/mL) E. faecalis ATCC 29212
E. coli DNA gyrase = E. coli DNA gyrase (Escherichia coli (strain K12), UniProt P0AES6); assay: DNA gyrase inhibition assay (Inspiralis, streptavidin-coated plates); type: biochemical
Description: (§1) Inhibitory activities for compounds of the present invention were determined on E. coli and S. aureus DNA gyrase and topoisomerase IV in an assay from Inspiralis on streptavidin-coated 96-well microtiter plates from Thermo scientific Pierce. […] After washing off the unbound oligonucleotide, the enzyme test was performed. […] Reaction solutions were incubated at 37° C. for 30 min. After that, the TF buffer (50 mM NaOAc with pH 5.0, 50 mM NaCl and 50 mM MgCl2) was added to terminate the enzymatic reaction. After additional incubation for 30 min at rt, during which biotin-oligonucleotide-plasmid triplex was formed, the unbound plasmid was washed off using TF buffer and SybrGOLD in T10 buffer (10 mM Tris HCl with pH 8.0 and 1 mM EDTA) was added. […] GraphPad Prism 6.0 software was used to calculate the IC50 values. The result is given as the average value of three independent measurements. […] Chemoth.

S. aureus ATCC 29213 = assay: Microbroth dilution MIC (CLSI); conditions: Staphylococcus aureus, ATCC29213, read-out: MIC (μg/mL) S. aureus ATCC 29213
S. aureus DNA gyrase = S. aureus DNA gyrase (Staphylococcus aureus, UniProt P0A0K8); assay: biochemical; conditions: read-out: IC50 DNA gyrase from S. aureus
Description: as §1

[1] = molecular target: S. aureus topoisomerase IV (Staphylococcus aureus, UniProt P0C1S7); assay: Topoisomerase IV inhibition assay (Inspiralis, streptavidin-coated plates); type: biochemical; conditions: read-out: IC50 DNA topoisomerase IV from S. aureus
Description: Inhibitory activities for compounds of the present invention were determined on E. coli and S. aureus DNA gyrase and topoisomerase IV in an assay from Inspiralis on streptavidin-coated 96-well microtiter plates from Thermo scientific Pierce. First, the plates were rehydrated with buffer (20 mM Tris-HCl with pH 7.6, 0.01% w/v BSA, 0.05% v/v Tween 20, 137 mM NaCl) and the biotinylated oligonucleotide was then immobilized. After washing off the unbound oligonucleotide, the enzyme test was performed. […] Reaction solutions were incubated at 37° C. for 30 min. After that, the TF buffer (50 mM NaOAc with pH 5.0, 50 mM NaCl and 50 mM MgCl2) was added to terminate the enzymatic reaction. After additional incubation for 30 min at rt, during which biotin-oligonucleotide-plasmid triplex was formed, the unbound plasmid was washed off using TF buffer and SybrGOLD in T10 buffer (10 mM Tris HCl with pH 8.0 and 1 mM EDTA) was added. The fluorescence was measured with a microplate reader (BioTek Synergy H4, excitation: 485 nm, emission: 535 nm). […]. GraphPad Prism 6.0 software was used to calculate the IC50 values. The result is given as the average value of three independent measurements. […]. Chemoth. 66, 2061-2096 (2011))) for E. coli and S. aureus topoisomerase IV) was used.

SMILES | MIC (E. coli ATCC 25922) | MIC (E. faecium ATCC 35667) | MIC (E. faecalis ATCC 29212) | IC50 (E. coli DNA gyrase) | MIC (S. aureus ATCC 29213) | IC50 (S. aureus DNA gyrase) | IC50 [1]
O=C(O)c1ccc2nc(NC(=O)c3cc(Cl)c(Cl)[nH]3)sc2c1 [Example 3, 2-(4,5-dichloro-1H-pyrrole-2-carboxamido)benzo[d]thiazole-6-carboxylic acid] | > 64 µg/mL | 17.8 µg/mL (≈ 50 µM) | 8.9 µg/mL (≈ 25 µM) | 19 ± 1 nM | > 64 µg/mL | – | –
Cc1[nH]c(C(=O)Nc2nc3cc(C(=O)O)ccc3s2)c(Cl)c1Cl [Example 4, 2-(3,4-dichloro-5-methyl-1H-pyrrole-2-carboxamido)benzo[d]thiazole-5-carboxylic acid] | > 64 µg/mL | > 64 µg/mL | > 64 µg/mL | 830 ± 150 nM | > 64 µg/mL | – | –
Cc1[nH]c(C(=O)Nc2nc3c(F)cc(C(=O)O)cc3s2)c(Cl)c1Cl [Example 5, 2-(3,4-dichloro-5-methyl-1H-pyrrole-2-carboxamido)-4-fluorobenzo[d]thiazole-6-carboxylic acid] | 16 µg/mL (≈ 41.2 µM) | 0.61 µg/mL (≈ 1.57 µM) | 0.0625 µg/mL (≈ 0.161 µM) | < 5 nM | 1 µg/mL (≈ 2.58 µM) | – | –
O=C(O)c1cc(O)c2nc(NC(=O)c3cc(Br)c(Br)[nH]3)sc2c1 [Example 6, 2-(4,5-dibromo-1H-pyrrole-2-carboxamido)-4-hydroxybenzo[d]thiazole-6-carboxylic acid] | > 64 µg/mL | > 64 µg/mL | 32 µg/mL (≈ 69.4 µM) | 46 ± 33 nM | > 64 µg/mL | – | –
Cc1[nH]c(C(=O)Nc2nc3c(O)cc(C(=O)O)cc3s2)c(Cl)c1Cl [Example 7, 2-(3,4-dichloro-5-methyl-1H-pyrrole-2-carboxamido)-4-hydroxybenzo[d]thiazole-6-carboxylic acid] | > 64 µg/mL | 1.21 µg/mL (≈ 3.13 µM) | 2 µg/mL (≈ 5.18 µM) | < 5 nM | 16 µg/mL (≈ 41.4 µM) | – | –
COc1cc(C(=O)O)cc2sc(NC(=O)c3[nH]c(C)c(Cl)c3Cl)nc12 [Example 8, 2-(3,4-dichloro-5-methyl-1H-pyrrole-2-carboxamido)-4-methoxybenzo[d]thiazole-6-carboxylic acid] | 64 µg/mL (≈ 160 µM) | 1.25 µg/mL (≈ 3.12 µM) | 0.25 µg/mL (≈ 0.625 µM) | 7.6 ± 3.4 nM | 2 µg/mL (≈ 5 µM) | – | –
Cc1[nH]c(C(=O)Nc2nc3c(OCCN)cc(C(=O)O)cc3s2)c(Cl)c1Cl.Cl [Example 11, 2-((6-carboxy-2-(3,4-dichloro-5-methyl-1H-pyrrole-2-carboxamido)benzo[d]thiazol-4-yl)oxy)ethan-1-aminium chloride] | > 64 µg/mL | > 64 µg/mL | > 64 µg/mL | < 5 nM | > 64 µg/mL | – | –
Cc1[nH]c(C(=O)Nc2nc3cc(O)c(C(=O)O)cc3s2)c(Cl)c1Cl [Example 13, 2-(3,4-dichloro-5-methyl-1H-pyrrole-2-carboxamido)-5-hydroxybenzo[d]thiazole-6-carboxylic acid] | > 64 µg/mL | 1.21 µg/mL (≈ 3.13 µM) | 1 µg/mL (≈ 2.59 µM) | < 5 nM | 16 µg/mL (≈ 41.4 µM) | – | –
Cc1[nH]c(C(=O)Nc2nc3ccc(C(=O)O)c(Cl)c3s2)c(Cl)c1Cl [Example 14, 7-chloro-2-(3,4-dichloro-5-methyl-1H-pyrrole-2-carboxamido)benzo[d]thiazole-6-carboxylic acid] | > 64 µg/mL | > 64 µg/mL | > 64 µg/mL | 310 ± 30 nM | > 64 µg/mL | – | –
O=C(O)c1ccc2nc(N(Cc3ccccc3)C(=O)c3cc(Br)c(Br)[nH]3)sc2c1 [Example 15, 2-(N-benzyl-4,5-dibromo-1H-pyrrole-2-carboxamido)benzo[d]thiazole-6-carboxylic acid] | > 64 µg/mL | 0.83 µg/mL (≈ 1.55 µM) | 0.21 µg/mL (≈ 0.392 µM) | 5.1 ± 1.3 nM | 0.42 µg/mL (≈ 0.785 µM) | – | –
Cc1[nH]c(C(=O)N(Cc2ccccc2)c2nc3ccc(C(=O)O)cc3s2)c(Cl)c1Cl [Example 16, 2-(N-benzyl-3,4-dichloro-5-methyl-1H-pyrrole-2-carboxamido)benzo[d]thiazole-6-carboxylic acid] | 64 µg/mL (≈ 139 µM) | 0.36 µg/mL (≈ 0.782 µM) | ≤ 0.0312 µg/mL | < 5 nM | ≤ 0.0312 µg/mL | – | –
Cc1[nH]c(C(=O)Nc2nc3ccc(-c4nnn[nH]4)cc3s2)c(Cl)c1Cl [Example 17, N-(6-(1H-tetrazol-5-yl)benzo[d]thiazol-2-yl)-3,4-dichloro-5-methyl-1H-pyrrole-2-carboxamide] | > 64 µg/mL | 1.23 µg/mL (≈ 3.12 µM) | 1 µg/mL (≈ 2.54 µM) | < 5 nM | 16 µg/mL (≈ 40.6 µM) | – | –
Cc1[nH]c(C(=O)Nc2nc3ccc(C(N)=O)cc3s2)c(Cl)c1Cl [Example 18, 2-(3,4-dichloro-5-methyl-1H-pyrrole-2-carboxamido)benzo[d]thiazole-6-carboxamide] | > 64 µg/mL | > 64 µg/mL | > 64 µg/mL | 11 ± 2 nM | 1.16 µg/mL (≈ 3.14 µM) | – | –
O=C(NO)c1ccc2nc(NC(=O)c3cc(Br)c(Br)[nH]3)sc2c1 [Example 19, 2-(4,5-dibromo-1H-pyrrole-2-carboxamido)-N-hydroxybenzo[d]thiazole-6-carboxamide] | > 64 µg/mL | > 64 µg/mL | 64 µg/mL (≈ 139 µM) | 89 ± 20 nM | > 64 µg/mL | – | –
Cc1[nH]c(C(=O)Nc2nc3ccc(C(=O)NO)cc3s2)c(Cl)c1Cl [Example 20, 2-(3,4-dichloro-5-methyl-1H-pyrrole-2-carboxamido)-N-hydroxybenzo[d]thiazole-6-carboxamide] | > 64 µg/mL | 38.5 µg/mL (≈ 100 µM) | 0.5 µg/mL (≈ 1.3 µM) | 280 ± 10 nM | 64 µg/mL (≈ 166 µM) | – | –
O=C(O)CCNC(=O)c1ccc2nc(NC(=O)c3cc(Br)c(Br)[nH]3)sc2c1 [Example 21, 3-(2-(4,5-dibromo-1H-pyrrole-2-carboxamido)benzo[d]thiazole-6-carboxamido)propanoic acid] | > 64 µg/mL | > 64 µg/mL | > 64 µg/mL | 12 ± 5 nM | > 64 µg/mL | – | –
Cc1[nH]c(C(=O)Nc2nc3ccc(C(=O)NCCC(=O)O)cc3s2)c(Cl)c1Cl [Example 22, 3-(2-(3,4-dichloro-5-methyl-1H-pyrrole-2-carboxamido)benzo[d]thiazole-6-carboxamido)propanoic acid] | > 64 µg/mL | 5.52 µg/mL (≈ 12.5 µM) | 2 µg/mL (≈ 4.53 µM) | 7 ± 0.9 nM | 32 µg/mL (≈ 72.5 µM) | – | –
Cc1[nH]c(C(=O)Nc2nc3c(OCc4cccc(F)c4)cc(C(=O)O)cc3s2)c(Cl)c1Cl [Example 30, 2-(3,4-dichloro-5-methyl-1H-pyrrole-2-carboxamido)-4-((3-fluorobenzyl)oxy)benzo[d]thiazole-6-carboxylic acid] | > 64 µg/mL | – | 0.001 µg/mL (≈ 0.00202 µM) | – | 0.0625 µg/mL (≈ 0.126 µM) | < 20 nM | < 400 nM
